Experimental data as given in US20030055092A1, “Remedies for ischemic stroke” (priority 1998, published 2003).
One block for each compound: values may come before it.

Key:
mGluR6 = molecular target: T1, mGluR6 (Rattus norvegicus, UniProt P35349); experiment: forskolin-induced cAMP formation in mGluR6-expressing CHO cells; type: cell-based; conditions: up to 100 μM
T1 construct: expressed in transfected cells; host or cells: CHO
Protocol: (§1) NIH3T3 cells expressed mGluR1 α and mGluR5a individually were cultured in DMEM medium containing 10% dialyzed fetal bovine serum and 100 units/ml, 0.1 mg/ml streptomycin sulfate. CHO cells which expressed mGluR2, R3, R4, R6 and R7 individually were cultured in DMEM medium containing 10% dialyzed fetal bovine serum, 100 units/ml, 0.1 mg/ml streptomycin sulfate and 2 mM glutamine. Using the cells expressing mGluR2, R3, R4, R6 and R7 cAMP formation induced by forskolin in the presence of IBMX was measured using a cAMP measuring kit as previously described (Neuron, 8, 169-179, 1992).

mGluR4 = molecular target: T2, mGluR4 (Rattus norvegicus, UniProt P31423); experiment: forskolin-induced cAMP formation in mGluR4-expressing CHO cells; type: cell-based; conditions: up to 100 μM
T2 construct: expressed in transfected cells; host or cells: CHO
Protocol: as §1

mGluR1α = molecular target: T3, mGluR1α (Rattus norvegicus, UniProt P23385); experiment: glutamate-induced phosphatidylinositol (PI) hydrolysis in mGluR1α-expressing cells; type: cell-based; conditions: 100 μM glutamate, read-out: IC50 for inhibition of glutamate-induced PI formation against mGluR1α
T3 construct: expressed in transfected cells; host or cells: NIH3T3
Protocol: (§2) NIH3T3 cells expressed mGluR1 α and mGluR5a individually were cultured in DMEM medium containing 10% dialyzed fetal bovine serum and 100 units/ml, 0.1 mg/ml streptomycin sulfate. CHO cells which expressed mGluR2, R3, R4, R6 and R7 individually were cultured in DMEM medium containing 10% dialyzed fetal bovine serum, 100 units/ml, 0.1 mg/ml streptomycin sulfate and 2 mM glutamine. Hydrolysis of phosphatidylinositol was measured as previously described (Nature, 383, 89-92, 1996) using the mGluR1 α-expressing cells incorporated ^3H-inositol.

mGluR5 = molecular target: T4, mGluR5 (Rattus norvegicus, UniProt P31424); experiment: agonist/antagonist activity in mGluR5a-expressing NIH3T3 cells; type: cell-based; conditions: up to 10 μM
T4 construct: expressed in transfected cells; host or cells: NIH3T3
Protocol: as §2, with “glutamine.” for “glutamine. Hydrolysis of phosphatidylinositol was measured as previously described (Nature, 383, 89-92, 1996) using the mGluR1 α-expressing cells incorporated ^3H-inositol.”

mGluR3 = molecular target: T5, mGluR3 (Rattus norvegicus, UniProt P31422); experiment: forskolin-induced cAMP formation in mGluR3-expressing CHO cells; type: cell-based; conditions: up to 100 μM
T5 construct: expressed in transfected cells; host or cells: CHO
Protocol: as §1

[1] = test system: Fischer-344 rat, permanent left MCA occlusion; experiment: permanent MCA occlusion model, cerebral infarct volume (TTC staining); type: in vivo; conditions: 6 mg/kg/h i.v. continuously for 24 hours from 5 minutes after occlusion
Protocol: Compound A was dissolved in physiological saline and adjusted to 6 mg/3 ml. In accordance with the known method (J. Pharmacol. Exp. Thr., 276, 84-92, 1996), left MCA of a Fischer-344 rat was subjected to permanent occlusion and, 5 minutes thereafter, the compound A was intravenously administered continuously for 24 hours at a rate of 6 mg/a dose volume of 3 ml/kg/h under no anesthesia and no restriction. After completion of the administration, the animal was decapitated to excise the brain which was subsequently stained with 2,3,5-triphenyltetrazolium hydrochloride (TTC) to measure infarct volume.

mGluR2 = molecular target: T6, mGluR2 (Rattus norvegicus, UniProt P31421); experiment: forskolin-induced cAMP formation in mGluR2-expressing CHO cells; type: cell-based; conditions: up to 100 μM
T6 construct: expressed in transfected cells; host or cells: CHO
Protocol: as §1

mGluR7 = molecular target: T7, mGluR7 (Rattus norvegicus, UniProt P35400); experiment: forskolin-induced cAMP formation in mGluR7-expressing CHO cells; type: cell-based; conditions: up to 100 μM
T7 construct: expressed in transfected cells; host or cells: CHO
Protocol: as §1

[2] = test system: gerbils exposed to 5 min of cerebral ischemia; conditions: cited from earlier work

T6 sequence (P31421 19-872): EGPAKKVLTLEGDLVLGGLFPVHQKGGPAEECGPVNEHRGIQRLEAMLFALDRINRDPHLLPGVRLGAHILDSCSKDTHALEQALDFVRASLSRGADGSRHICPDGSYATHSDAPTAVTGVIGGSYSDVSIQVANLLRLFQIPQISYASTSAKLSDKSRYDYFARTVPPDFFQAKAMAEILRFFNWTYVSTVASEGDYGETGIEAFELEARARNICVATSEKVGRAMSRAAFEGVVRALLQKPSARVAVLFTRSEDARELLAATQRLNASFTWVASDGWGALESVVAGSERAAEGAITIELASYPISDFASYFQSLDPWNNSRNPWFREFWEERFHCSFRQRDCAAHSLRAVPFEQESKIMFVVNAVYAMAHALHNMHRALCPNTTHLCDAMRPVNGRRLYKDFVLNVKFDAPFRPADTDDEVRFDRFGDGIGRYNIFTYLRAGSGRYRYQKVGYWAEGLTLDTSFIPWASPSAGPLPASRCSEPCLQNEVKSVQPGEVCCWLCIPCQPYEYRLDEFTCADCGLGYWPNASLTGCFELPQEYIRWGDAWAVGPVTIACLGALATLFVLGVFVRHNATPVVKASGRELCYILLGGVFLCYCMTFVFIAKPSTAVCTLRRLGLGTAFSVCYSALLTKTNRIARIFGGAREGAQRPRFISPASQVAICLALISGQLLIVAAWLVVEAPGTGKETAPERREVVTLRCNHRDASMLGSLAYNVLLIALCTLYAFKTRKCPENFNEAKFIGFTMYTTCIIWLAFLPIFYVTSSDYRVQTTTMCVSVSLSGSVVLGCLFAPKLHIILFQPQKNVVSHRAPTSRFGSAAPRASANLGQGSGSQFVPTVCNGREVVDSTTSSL
T1 sequence (P35349 24-871): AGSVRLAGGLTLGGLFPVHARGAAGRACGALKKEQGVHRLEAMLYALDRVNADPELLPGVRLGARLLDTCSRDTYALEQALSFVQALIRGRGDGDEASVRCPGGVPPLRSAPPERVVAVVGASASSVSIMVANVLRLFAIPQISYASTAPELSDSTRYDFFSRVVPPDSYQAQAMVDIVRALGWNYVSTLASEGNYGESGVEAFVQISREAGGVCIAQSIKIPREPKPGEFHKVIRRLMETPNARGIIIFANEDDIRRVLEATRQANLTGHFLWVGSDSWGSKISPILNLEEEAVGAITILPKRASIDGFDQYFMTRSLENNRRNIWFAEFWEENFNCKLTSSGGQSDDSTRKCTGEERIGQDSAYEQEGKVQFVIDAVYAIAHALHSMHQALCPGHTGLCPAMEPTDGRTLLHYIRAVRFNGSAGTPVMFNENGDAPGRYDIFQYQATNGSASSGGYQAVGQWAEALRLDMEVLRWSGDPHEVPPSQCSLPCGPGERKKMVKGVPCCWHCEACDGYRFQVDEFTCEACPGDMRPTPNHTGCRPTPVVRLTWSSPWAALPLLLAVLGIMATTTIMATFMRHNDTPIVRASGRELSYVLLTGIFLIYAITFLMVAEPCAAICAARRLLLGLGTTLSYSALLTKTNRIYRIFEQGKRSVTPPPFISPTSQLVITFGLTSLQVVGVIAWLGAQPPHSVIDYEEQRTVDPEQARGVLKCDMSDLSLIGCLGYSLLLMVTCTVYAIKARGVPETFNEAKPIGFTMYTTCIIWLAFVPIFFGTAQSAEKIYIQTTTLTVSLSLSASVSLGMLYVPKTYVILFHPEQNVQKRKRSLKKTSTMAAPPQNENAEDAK
T7 sequence (P35400 35-915): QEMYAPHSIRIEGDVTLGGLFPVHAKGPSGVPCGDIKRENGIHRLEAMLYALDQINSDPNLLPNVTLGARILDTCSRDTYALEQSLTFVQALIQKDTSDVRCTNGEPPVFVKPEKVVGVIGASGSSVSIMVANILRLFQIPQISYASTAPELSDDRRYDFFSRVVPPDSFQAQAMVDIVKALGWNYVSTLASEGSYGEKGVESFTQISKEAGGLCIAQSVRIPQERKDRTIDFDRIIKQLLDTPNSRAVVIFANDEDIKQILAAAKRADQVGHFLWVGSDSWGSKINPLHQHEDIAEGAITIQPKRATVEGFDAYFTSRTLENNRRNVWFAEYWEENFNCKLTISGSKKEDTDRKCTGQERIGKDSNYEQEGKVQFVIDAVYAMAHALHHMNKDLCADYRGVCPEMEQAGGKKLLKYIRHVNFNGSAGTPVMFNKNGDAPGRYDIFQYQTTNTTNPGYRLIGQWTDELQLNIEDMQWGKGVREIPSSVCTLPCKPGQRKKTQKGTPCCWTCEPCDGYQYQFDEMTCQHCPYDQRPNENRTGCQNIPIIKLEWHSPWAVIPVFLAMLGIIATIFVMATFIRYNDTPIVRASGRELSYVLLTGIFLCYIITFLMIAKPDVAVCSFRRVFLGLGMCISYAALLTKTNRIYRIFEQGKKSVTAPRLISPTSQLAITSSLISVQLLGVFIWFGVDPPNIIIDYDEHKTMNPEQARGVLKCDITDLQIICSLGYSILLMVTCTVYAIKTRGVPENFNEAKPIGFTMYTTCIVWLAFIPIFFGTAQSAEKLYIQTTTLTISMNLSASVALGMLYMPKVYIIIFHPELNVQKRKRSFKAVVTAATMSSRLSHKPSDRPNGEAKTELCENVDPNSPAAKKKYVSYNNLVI
T4 sequence (P31424 21-1171 isoform P31424-2 limits assumed): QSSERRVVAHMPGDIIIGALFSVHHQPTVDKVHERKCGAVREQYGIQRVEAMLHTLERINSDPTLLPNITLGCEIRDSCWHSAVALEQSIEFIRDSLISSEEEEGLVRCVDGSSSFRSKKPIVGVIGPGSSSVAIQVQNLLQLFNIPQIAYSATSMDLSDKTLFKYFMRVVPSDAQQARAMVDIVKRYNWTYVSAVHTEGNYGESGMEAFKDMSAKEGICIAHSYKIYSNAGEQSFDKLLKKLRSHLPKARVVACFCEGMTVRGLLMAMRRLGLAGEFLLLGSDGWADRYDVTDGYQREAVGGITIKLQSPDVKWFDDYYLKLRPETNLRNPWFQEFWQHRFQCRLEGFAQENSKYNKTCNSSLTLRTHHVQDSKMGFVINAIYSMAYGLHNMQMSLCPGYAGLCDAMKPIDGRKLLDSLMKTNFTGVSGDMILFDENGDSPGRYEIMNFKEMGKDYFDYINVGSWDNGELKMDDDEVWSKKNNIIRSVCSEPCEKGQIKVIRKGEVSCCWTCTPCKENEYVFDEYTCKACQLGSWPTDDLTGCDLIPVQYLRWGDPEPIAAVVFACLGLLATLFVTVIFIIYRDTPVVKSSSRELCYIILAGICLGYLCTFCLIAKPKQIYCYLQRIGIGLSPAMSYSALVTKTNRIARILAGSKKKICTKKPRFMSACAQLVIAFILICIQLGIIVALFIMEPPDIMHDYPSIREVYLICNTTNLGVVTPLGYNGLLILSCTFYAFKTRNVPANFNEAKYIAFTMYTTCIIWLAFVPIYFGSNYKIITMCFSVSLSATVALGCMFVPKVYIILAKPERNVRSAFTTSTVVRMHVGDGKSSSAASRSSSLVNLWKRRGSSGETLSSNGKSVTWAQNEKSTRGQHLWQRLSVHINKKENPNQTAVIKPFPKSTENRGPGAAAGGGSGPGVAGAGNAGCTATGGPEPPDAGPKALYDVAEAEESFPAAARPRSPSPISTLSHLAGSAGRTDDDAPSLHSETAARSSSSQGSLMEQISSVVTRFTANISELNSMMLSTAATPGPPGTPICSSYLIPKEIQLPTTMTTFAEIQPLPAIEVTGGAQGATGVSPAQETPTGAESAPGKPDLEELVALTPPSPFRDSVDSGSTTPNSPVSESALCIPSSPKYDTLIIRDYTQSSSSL
T5 sequence (P31422 23-879): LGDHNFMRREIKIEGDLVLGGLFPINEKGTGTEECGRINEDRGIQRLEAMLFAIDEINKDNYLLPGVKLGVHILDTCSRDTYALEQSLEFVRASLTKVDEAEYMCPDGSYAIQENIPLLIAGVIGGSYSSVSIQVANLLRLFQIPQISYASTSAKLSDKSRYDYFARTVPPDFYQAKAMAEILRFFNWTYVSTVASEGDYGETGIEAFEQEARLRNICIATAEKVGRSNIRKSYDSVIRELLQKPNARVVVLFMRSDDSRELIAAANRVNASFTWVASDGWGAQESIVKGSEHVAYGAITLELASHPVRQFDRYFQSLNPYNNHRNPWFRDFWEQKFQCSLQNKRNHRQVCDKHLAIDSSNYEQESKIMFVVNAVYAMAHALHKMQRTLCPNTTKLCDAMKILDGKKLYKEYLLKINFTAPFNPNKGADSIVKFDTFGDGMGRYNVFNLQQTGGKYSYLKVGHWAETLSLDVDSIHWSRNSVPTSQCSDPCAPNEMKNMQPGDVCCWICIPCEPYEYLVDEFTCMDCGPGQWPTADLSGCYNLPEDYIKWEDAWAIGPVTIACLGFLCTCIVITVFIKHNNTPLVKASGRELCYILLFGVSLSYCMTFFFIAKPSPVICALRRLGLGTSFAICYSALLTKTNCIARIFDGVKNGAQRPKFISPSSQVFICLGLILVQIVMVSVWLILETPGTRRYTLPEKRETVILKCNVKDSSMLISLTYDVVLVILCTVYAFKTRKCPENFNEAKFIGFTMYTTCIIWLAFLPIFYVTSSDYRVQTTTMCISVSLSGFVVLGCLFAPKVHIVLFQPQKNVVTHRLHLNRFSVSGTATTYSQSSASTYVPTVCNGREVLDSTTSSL

agonist and antagonist activities against mGluR6 (mGluR6): no agonist and antagonist activities
agonist and antagonist activities against mGluR4 (mGluR4): no agonist and antagonist activities
IC50 (mGluR1α): 0.024 µM
agonist and antagonist activities against mGluR5 (mGluR5): no agonist and antagonist activities
agonist and antagonist activities against mGluR3 (mGluR3): no agonist and antagonist activities
agonist and antagonist activities against mGluR2 (mGluR2): no agonist and antagonist activities
agonist and antagonist activities against mGluR7 (mGluR7): no agonist and antagonist activities
SMILES: Cc1c(C(=O)N(C)C2CCCCC2)sc2nc3ccc(N)cc3n12.Cl.Cl [compound A, 6-amino-N-cyclohexyl-N,3-dimethylthiazolo[3,2-a]benzoimidazole-2-carboxamide dihydrochloride]
cerebral infarct volume suppression ratio in cerebral cortex [1]: 36%
cerebral infarct volume suppression ratio in cerebral hemisphere [1]: 29%
effect on cerebral infarct volume versus controls [1]: reduced the cerebral infarct volume significantly

SMILES: N[C@H](C(=O)O)c1ccc(C(=O)O)c(O)c1 [4 C3 HPG, (S)-4-carboxy-3 hydroxyphenylglycine]
neuroprotective effectiveness in the same gerbil model [2]: is effective

SMILES: N[C@H](C(=O)O)c1ccc(C(=O)O)cc1 [4 CPG, (S)-4-carboxyphenylglycine]
neuroprotective effectiveness in the same gerbil model [2]: is not effective

SMILES: NC1(C(=O)O)CCc2cc(C(=O)O)ccc21 (stereo not shown) [AIDA]
loss of neuronal cells in CA1 area ([2]; intraventricular administration): reduced the loss of the neuronal cells
